“And” between values parts separate entries of the source, which are not always exact repeats. Equal values may be shown once. Toxic doses and inconclusive results are not listed.
Test system: P388 leukemia ip, CD2F1 mice, survival T/C
Experiment: NCI In Vivo Anticancer Drug Screen. Data for tumor model P388 Leukemia (intraperitoneal) in CD2F1 (CDF1) mice
Settings: endpoint: median survival time, higher = longer survival
Method in brief: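 Mice carrying the transplanted tumor received test compound or vehicle. Survival was recorded in each group, and the value is the treated-group measurement divided by that of the vehicle-treated control group.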

[1] = dose: 50.0 mg/kg/injection, schedule: Q01DX005 (ip), vehicle: saline
[2] = dose: 100.0 mg/kg/injection, schedule: Q01DX005 (ip), vehicle: saline
[3] = dose: 200.0 mg/kg/injection, schedule: Q01DX005 (ip), vehicle: saline
[4] = dose: 60.0 mg/kg/injection, schedule: Q01DX005 (ip), vehicle: saline with Tween-80
[5] = dose: 120.0 mg/kg/injection, schedule: Q01DX005 (ip), vehicle: saline with Tween-80
[6] = dose: 50.0 mg/kg/injection, schedule: Q01DX005 (ip), vehicle: Klucel (hydroxypropylcellulose) (HPC)
[7] = dose: 100.0 mg/kg/injection, schedule: Q01DX005 (ip), vehicle: Klucel (hydroxypropylcellulose) (HPC)
[8] = dose: 200.0 mg/kg/injection, schedule: Q01DX005 (ip), vehicle: Klucel (hydroxypropylcellulose) (HPC)
[9] = dose: 50.0 mg/kg/injection, schedule: Q01DX005 (ip), vehicle: saline with Tween-80
[10] = dose: 100.0 mg/kg/injection, schedule: Q01DX005 (ip), vehicle: saline with Tween-80
[11] = dose: 200.0 mg/kg/injection, schedule: Q01DX005 (ip), vehicle: saline with Tween-80
[12] = dose: 60.0 mg/kg/injection, schedule: Q01DX005 (ip), vehicle: Klucel (hydroxypropylcellulose) (HPC)
[13] = dose: 120.0 mg/kg/injection, schedule: Q01DX005 (ip), vehicle: Klucel (hydroxypropylcellulose) (HPC)
[14] = dose: 240.0 mg/kg/injection, schedule: Q01DX005 (ip), vehicle: Klucel (hydroxypropylcellulose) (HPC)
[15] = dose: 240.0 mg/kg/injection, schedule: Q01DX005 (ip), vehicle: saline with Tween-80

For `COC1=C(C)C(=O)C2=C(C1=O)C1C3CC4=C(C(=O)C(OC)=C(C)C4=O)C(CNC(=O)C(C)O)N3C(C#N)C(C2)N1C` (configuration not stated), the T/C (dose: 2.5 mg/kg/injection, schedule: Q01DX005 (ip), vehicle: Klucel (hydroxypropylcellulose) (HPC)) was 155 % of control and 161 % of control.

With `C[N+](C)(C)CCC(=O)c1cccc([N+](=O)[O-])c1` the T/C (dose: 12.5 mg/kg/injection, schedule: Q01DX009 (ip), vehicle: saline) was 101 % of control, the T/C (dose: 25.0 mg/kg/injection, schedule: Q01DX009 (ip), vehicle: saline) was 97 % of control and the T/C (dose: 50.0 mg/kg/injection, schedule: Q01DX009 (ip), vehicle: saline) was 108 % of control and 97 % of control.

`CN(C)CCNC1c2ccccc2-c2ccccc21` was tested, and the T/C [1] was 99 % of control, the T/C [2] was 98 % of control and the T/C [3] was 100 % of control.

For `[N-]=[N+]=NC(=O)c1cnn(Cc2ccccc2)c1N`, the T/C (dose: 100.0 mg/kg/injection, schedule: Q01DX001 (ip), vehicle: saline with Tween-80) was 103 % of control and the T/C (dose: 200.0 mg/kg/injection, schedule: Q01DX001 (ip), vehicle: saline with Tween-80) was 101 % of control.

In the case of `CCc1cccc(CC)c1NC(=O)OCCN(CC)CC`, the T/C [4] is reported as 100 % of control and the T/C [5] is reported as 94 % of control.

For `COc1cc(OC)c2cc(-n3nnc4cc([N+](=O)[O-])ccc43)c(=O)oc2c1`, the T/C (dose: 7.5 mg/kg/injection, schedule: Q01DX005 (ip), vehicle: saline with Tween-80) was 100 % of control, the T/C (dose: 15.0 mg/kg/injection, schedule: Q01DX005 (ip), vehicle: saline with Tween-80) was 95 % of control and the T/C (dose: 30.0 mg/kg/injection, schedule: Q01DX005 (ip), vehicle: saline with Tween-80) was 88 % of control. For the same compound, the T/C [4] was 88 % of control.

In the case of `CCOc1cc(C)c(CC2NC(=O)NC2=O)cc1C(C)C` (configuration not stated), the T/C (dose: 100.0 mg/kg/injection, schedule: Q04DX003 (ip), vehicle: suspension in saline) is reported as 100 % of control, the T/C (dose: 200.0 mg/kg/injection, schedule: Q04DX003 (ip), vehicle: suspension in saline) is reported as 100 % of control and the T/C (dose: 400.0 mg/kg/injection, schedule: Q04DX003 (ip), vehicle: suspension in saline) is reported as 88 % of control.

`CNC(=O)Oc1ccc2c(c1)[C@]1(C)CCN(C)[C@@H]1N2C` was tested, and the T/C (dose: 0.05 mg/kg/injection, schedule: Q01DX005 (ip), vehicle: saline with Tween-80) was 98 % of control, the T/C (dose: 0.05 mg/kg/injection, schedule: Q01DX009 (ip), vehicle: saline) was 102 % of control and the T/C (dose: 0.1 mg/kg/injection, schedule: Q01DX005 (ip), vehicle: saline with Tween-80) was 99 % of control. For the same compound, the T/C (dose: 0.1 mg/kg/injection, schedule: Q01DX009 (ip), vehicle: saline) was 101 % of control, the T/C (dose: 0.2 mg/kg/injection, schedule: Q01DX005 (ip), vehicle: saline with Tween-80) was 99 % of control and the T/C (dose: 0.2 mg/kg/injection, schedule: Q01DX009 (ip), vehicle: saline) was 97 % of control. For the same compound, the T/C (dose: 0.4 mg/kg/injection, schedule: Q01DX005 (ip), vehicle: saline with Tween-80) was 93 % of control and the T/C (dose: 0.4 mg/kg/injection, schedule: Q01DX009 (ip), vehicle: saline) was 111 % of control.

With `CCOC(=O)C1Cc2c([nH]c(=O)[nH]c2=O)OC1c1ccc(OC)cc1` (configuration not stated) the T/C [6] was 97 % of control, the T/C [7] was 100 % of control and the T/C [8] was 97 % of control.

With `COc1ccc2nc3cc(Cl)ccc3c(NCCCN3CCCC3)c2n1` the T/C (dose: 12.5 mg/kg/injection, schedule: Q01DX009 (ip), vehicle: water) was 102 % of control and the T/C (dose: 25.0 mg/kg/injection, schedule: Q01DX009 (ip), vehicle: water) was 102 % of control.

For `OC1c2ccccc2-c2nc3ccccc3cc21` (configuration not stated), the T/C [6] was 110 % of control and 92 % of control, the T/C [7] was 102 % of control and 86 % of control and the T/C [8] was 107 % of control.

With `Cc1ccnc(NS(=O)(=O)c2ccc(NC(=O)Nc3ccc(Cl)c(C(F)(F)F)c3)cc2)n1` the T/C [6] was 99 % of control, the T/C [7] was 104 % of control and the T/C [8] was 96 % of control.

With `CCCCCCCC/C=C\CCCCCCCC(=O)OC/C=C/COC(=O)c1ccccc1` the T/C (dose: 100.0 mg/kg/injection, schedule: Q04DX003 (ip), vehicle: Klucel (hydroxypropylcellulose) (HPC)) was 106 % of control, the T/C (dose: 200.0 mg/kg/injection, schedule: Q04DX003 (ip), vehicle: Klucel (hydroxypropylcellulose) (HPC)) was 99 % of control and the T/C (dose: 400.0 mg/kg/injection, schedule: Q04DX003 (ip), vehicle: Klucel (hydroxypropylcellulose) (HPC)) was 106 % of control.

`CCNC(=O)Nc1nc2ccccc2[nH]1` was tested, and the T/C (dose: 12.5 mg/kg/injection, schedule: Q01DX009 (ip), vehicle: saline with Tween-80) was 103 % of control, the T/C (dose: 25.0 mg/kg/injection, schedule: Q01DX009 (ip), vehicle: saline with Tween-80) was 100 % of control and the T/C (dose: 50.0 mg/kg/injection, schedule: Q01DX009 (ip), vehicle: saline with Tween-80) was 107 % of control.

For `CC1CCC(SC2CC(=O)CCC2=O)CC1` (configuration not stated), the T/C [9] was 104 % of control and 115 % of control, the T/C [10] was 106 % of control and 115 % of control and the T/C [11] was 122 % of control.

For `N#Cc1ccc(OC(=O)Nc2ccc(Br)cc2)cc1`, the T/C [12] was 115 % of control, the T/C [13] was 114 % of control and the T/C [14] was 108 % of control.

For `COc1nc(=O)n(C2CCCO2)cc1Br` (configuration not stated), the T/C [4] was 96 % of control, the T/C [5] was 102 % of control and the T/C [15] was 100 % of control.

For `CCCCCCCCCCCCCC(CCCCCCCC)CCCCCCCC`, the T/C (dose: 50.0 mg/kg/injection, schedule: Q01DX001 (ip), vehicle: saline sonified) was 100 % of control, the T/C (dose: 100.0 mg/kg/injection, schedule: Q01DX001 (ip), vehicle: saline sonified) was 113 % of control and the T/C (dose: 200.0 mg/kg/injection, schedule: Q01DX001 (ip), vehicle: saline sonified) was 100 % of control.

`CCN(CC)c1ccc(C(NCCC(C)C)C(Cl)(Cl)Cl)cc1` (configuration not stated) was tested, and the T/C [1] was 97 % of control, the T/C [2] was 101 % of control and the T/C [3] was 101 % of control.

In the case of `O=C(O)CNC(=O)NC(Cc1ccccc1)C(=O)O` (configuration not stated), the T/C [9] is reported as 105 % of control, the T/C [10] is reported as 105 % of control and the T/C [11] is reported as 93 % of control.

With `Cc1cc(C(F)(F)F)nc2nc3ccccc3n12` the T/C [12] was 101 % of control, the T/C [13] was 102 % of control and the T/C [14] was 89 % of control.

With `CCOC(=O)c1ccc(N(CC(O)CN=[N+]=[N-])S(=O)(=O)c2ccc(C)cc2)cc1` (configuration not stated) the T/C [4] was 112 % of control, the T/C [5] was 102 % of control and the T/C [15] was 96 % of control.

`O=C1C=CC(=CC=C2C=CN(CCCCCCO)C=C2)C=C1` was tested, and the T/C [4] was 105 % of control, the T/C [5] was 116 % of control and the T/C [15] was 122 % of control.

For `CC/C(=N/N(C)C)C(=O)OC`, the T/C (dose: 100.0 mg/kg/injection, schedule: Q04DX002 (ip), vehicle: saline) was 95 % of control, the T/C (dose: 200.0 mg/kg/injection, schedule: Q04DX002 (ip), vehicle: saline) was 100 % of control and the T/C (dose: 400.0 mg/kg/injection, schedule: Q04DX002 (ip), vehicle: saline) was 98 % of control.

`CNCCc1c(C2C3C(C=C(C)CC3(C)C)c3c(CCNC)c4ccccc4n32)[nH]c2ccccc12` (configuration not stated) was tested, and the T/C (dose: 4.0 mg/kg/injection, schedule: Q01DX009 (ip), vehicle: saline) was 107 % of control, the T/C (dose: 8.0 mg/kg/injection, schedule: Q01DX009 (ip), vehicle: saline) was 110 % of control and the T/C (dose: 16.0 mg/kg/injection, schedule: Q01DX009 (ip), vehicle: saline) was 115 % of control. The T/C (dose: 32.0 mg/kg/injection, schedule: Q01DX009 (ip), vehicle: saline) was 114 % of control.

With `CC1(CCOCc2ccccc2)NC(=O)NC1=O` (configuration not stated) the T/C (dose: 100.0 mg/kg/injection, schedule: Q01DX009 (ip), vehicle: saline with Tween-80) was 90 % of control, the T/C (dose: 200.0 mg/kg/injection, schedule: Q01DX009 (ip), vehicle: saline with Tween-80) was 100 % of control and the T/C (dose: 400.0 mg/kg/injection, schedule: Q01DX009 (ip), vehicle: saline with Tween-80) was 100 % of control.

For `CCOC/C(=N\NS(=O)(=O)c1ccc(C)cc1)C1(O)Cc2c(O)c3c(c(O)c2C(O)C1)C(=O)c1c(OC)cccc1C3=O` (configuration not stated), the T/C (dose: 1.56 mg/kg/injection, schedule: Q01DX009 (ip), vehicle: other) was 100 % of control, the T/C (dose: 3.13 mg/kg/injection, schedule: Q01DX009 (ip), vehicle: other) was 100 % of control and the T/C (dose: 6.25 mg/kg/injection, schedule: Q01DX009 (ip), vehicle: other) was 103 % of control. The T/C (dose: 12.5 mg/kg/injection, schedule: Q01DX009 (ip), vehicle: other) was 107 % of control and the T/C (dose: 25.0 mg/kg/injection, schedule: Q01DX009 (ip), vehicle: other) was 94 % of control.

For `CC(=O)Nc1ccc(S(=O)(=O)CC#N)cc1`, the T/C (dose: 50.0 mg/kg/injection, schedule: Q01DX009 (ip), vehicle: suspension in saline) was 87 % of control and the T/C (dose: 100.0 mg/kg/injection, schedule: Q01DX009 (ip), vehicle: suspension in saline) was 93 % of control.

— PubChem BioAssay AID330 (DTP/NCI, 2004)
